Source: paper PMC11791882

Assay: on-resin side-chain lactamisation Lys(NH2)/Glu(COOH) after Pd(0)/PhSiH3 removal of Alloc/OAll; DIC 30 eq + OxymaPure 30 eq; ProTide resin 0.19 mmol/g, ca. 300 mL DCM, 2 days
Conditions: the molecule shown is the open-chain precursor, 57-membered ring, scale: % HPLC purity of cyclic product

Fmoc-Thr(tBu)-Lys(NH2)-Asn(Trt)-His(Trt)-Gln(Trt)-Gly-Leu-Gly-Arg(Pbf)-Gly-Asp(OtBu)-Gln(Trt)-Thr(tBu)-Thr(tBu)-Pro-Ala-Gln(Trt)-Glu(COOH)-Ala-Gln(Trt)-Thr(tBu)-Gly-Trp(Boc)-Val-Gln(Trt)-Asn(Trt)-NH-ProTide resin
ring closure, conversion by HPLC (48.0 h): 80.8

Fmoc-Thr(tBu)-Lys(NH2)-Asn(Trt)-His(Trt)-Gln(Trt)-Gly-Pro-Gly-Arg(Pbf)-Gly-Asp(OtBu)-Gln(Trt)-Thr(tBu)-Thr(tBu)-Leu-Ala-Gln(Trt)-Glu(COOH)-Ala-Gln(Trt)-Thr(tBu)-Gly-Trp(Boc)-Val-Gln(Trt)-Asn(Trt)-NH-ProTide resin
ring closure, conversion by HPLC (168.0 h): 0

Fmoc-Thr(tBu)-Lys(NH2)-Asn(Trt)-His(Trt)-Gln(Trt)-Gly-Pro-Gly-Arg(Pbf)-Gly-Asp(OtBu)-Gln(Trt)-Thr(tBu)-Thr(tBu)-Pro-Ala-Gln(Trt)-Glu(COOH)-Ala-Gln(Trt)-Thr(tBu)-Gly-Trp(Boc)-Val-Gln(Trt)-Asn(Trt)-NH-ProTide resin
ring closure, conversion by HPLC (48.0 h): 88.6

Fmoc-Thr(tBu)-Lys(NH2)-Asn(Trt)-His(Trt)-Gln(Trt)-Ser(tBu)-Ala-Gln(Trt)-Arg(Pbf)-Gly-Asp(OtBu)-Leu-Thr(tBu)-Thr(tBu)-Pro-Ala-Gln(Trt)-Glu(COOH)-Ala-Gln(Trt)-Thr(tBu)-Gly-Trp(Boc)-Val-Gln(Trt)-Asn(Trt)-NH-ProTide resin
ring closure, conversion by HPLC (48.0 h): 73.9
